The test system of one series is living cells. Particulars: cited from earlier work. As for the experimental part:
Long-term cell tracking have recently attracted intensive research interest, as it can provide meritorious information on cell therapy and its processes, as well as on studying the mechanism of cancer pathogenesis, invasion and metastasis. Consequently, the application of the fluorescent nanofibrous hydrogel in long-term cell tracking was investigated. The HeLa cancer cells were incubated with the nanofiber suspension for 4 h at 37 °C. Subsequently, the nanofiber-labeled cells were subcultured for designated time intervals, followed by imaging with CLSM.

Series [1] concerns 4T1 tumor-bearing mice. Nature of the series: Fluorescence imaging in tissue slices (CLSM). The series is classed as in vivo, BALB/c mice. Particulars: intravenous, 0.1 mL of 100 μM, 0.5 h post-injection; vessels immunostained with PECAM-1. As for the experimental part: At 0.5 h post administration of 0.1 mL of fluorescent nanofiber and precursor (100 μM), respectively, the mice were sacrificed. Subsequently, the tumor tissues were dissected, fixed in 4% paraformaldehyde for 2 h, incubated in 20% sucrose/PBS overnight and embedded in Optimal Cutting Temperature (OCT) compound (Tissue-Tek). Sections (6 μm) were immunostained with monoclonal antibody against platelet/endothelial cell adhesion molecule 1 (PECAM-1; PharMingen). Alexa Fluor 633-conjugated antirabbit antibody was used as secondary antibody (Molecular Probes). The cell nuclei were stained with DAPI. The tumor slices were imaged by CLSM with excitation wavelength at 405 nm, 543 nm, and 633 nm for DAPI, Rhodamine B, and PECAM-1, respectively. Furthermore, at 24 h post administration of nanofiber and precursor, respectively, the slices of various tissues including tumor, intestine, liver, spleen, kidney, and heart were obtained following the aforementioned experimental procedures. After that, the cell nuclei in the tissue slices were stained with DAPI, which was followed by imaging with CLSM.

Series [2] in a line: Gelation after GSH addition, vial inversion method. The series is classed as physicochemical. As for the experimental part: Therefore, rheological measurement of the hydrogel was carried out.
5.0 mg of Rhodamine-GFFYE-CS-EE and 3 equiv. of Na2CO3 (in order to adjust the pH value of the final solution) were dissolved in 1.0 mL of PBS buffer (pH 7.4), and then 4 equiv. of reduced glutathione (GSH) was added to the solution. After about 20 minutes at room temperature, the self-supporting hydrogel was formed. Moreover, after dilution of the hydrogel with aqueous solution, the fluorescent nanofiber suspension was obtained.

In series [3] the test system is 4T1 tumor-bearing mice. Description: Ex vivo fluorescence imaging of tumor and organs (Maestro system). Conditions: intravenous, 0.1 mL of 100 μM, 24 h post-injection; excitation 523 nm.
Method: Eight-week-old BALB/c mice were purchase from the Laboratory Animal Center of the Academy of Military Medical Sciences (Beijing, China). To establish tumor-bearing mouse model, a 4T1 cancer cell suspension containing 5 × 10^5 cells (50 μL) was injected subcutaneously into the mice at the right axillae.
4T1 tumor-bearing mice were intravenously administrated with 0.1 mL of fluorescent nanofiber or precursor (100 μM). At 24 h post-injection, the mice were sacrificed, the tissues including liver, kidney, spleen, intestine, heart, lung, stomach, skin, muscle and tumor were excised and imaged using the Maestro system (CRi, Inc., Woburn, USA). Light with a central wavelength of 523 nm was selected as the excitation source. Spectral imaging from 560 to 900 nm with 10 nm steps was carried out with an exposure time of 150 ms.
The next series deals with HeLa cancer cells. Description: Cellular uptake and imaging by CLSM. Particulars: Rhodamine B concentration 100 μM, 2 h, FBS-free DMEM, excitation 543 nm. The series is classed as cell-based, Human. As for the experimental part: The HeLa cancer cells were cultured in confocal imaging chambers (LAB-TEK, Chambered Coverglass System) at 37 °C. After 80% confluence, the medium was removed and the adherent cells were washed twice with 1 × PBS buffer. The nanofiber and precursor in FBS-free DMEM medium at the Rhodamine B concentration of 100 μM were then added to the chamber, respectively. After incubation for 2 h, the cells were washed with 1 × PBS buffer and then imaged with confocal laser scanning microscope (CLSM, Zeiss LSM 410, Jena, Germany). The fluorescent signal from the Rhodamine B was collected upon excitation at 543 nm with a 560 nm longpass barrier filter. The HepG2 cancer cellular imaging was performed following the same experimental procedures.

For the molecule `CC(=O)Oc1ccc2c(c1)Oc1cc(OC(C)=O)ccc1C21OC(=O)c2cc(CCl)ccc21` [CellTrackerTM Green CMFDA], the “number of passages over which living cells can be traced” value in the series on living cells is “no more than 3 passages”.

With “Rhodamine-GFFYE-CS-EE [precursor, Rhodamine B-capped self-assembling peptide with cystamine succinate disulfide linker and hydrophilic EE; precursor of the supramolecular hydrogel]”, in the series with 4T1 tumor-bearing mice [1], the “red fluorescence in tumor slices (tumor accumulation)” value was “negligible red fluorescence”. The “time of gelation process after addition of GSH” value in series [2] (37 °C) is given as “around 30 min”. Besides, the “time to hydrogel formation after addition of GSH” value in series [2] (room temperature) stood at 2 h. In addition, the “ex vivo fluorescence signal in tumor” value in the series on 4T1 tumor-bearing mice [3] is given as “far weaker”. The “cellular uptake / spatial distribution in cells” value with HeLa cancer cells is listed as “internalized in the cell cytoplasm”.

Values taken from PMC4647837, “Biocompatible fluorescent supramolecular nanofibrous hydrogel for long-term cell tracking and tumor imaging applications” (Scientific Reports, 2015).
